Data on two compounds can be found in article PMC4570246 (Cancer letters, 2015).

This assay addresses β-tubulin (Homo sapiens, UniProt P07437). Nature of the assay: SPR. It is filed as binding.

Molecules are shown by their SMILES.

The term Kd denotes the concentration at which binding is half-saturated.

Sequence of β-tubulin (P07437 whole entry): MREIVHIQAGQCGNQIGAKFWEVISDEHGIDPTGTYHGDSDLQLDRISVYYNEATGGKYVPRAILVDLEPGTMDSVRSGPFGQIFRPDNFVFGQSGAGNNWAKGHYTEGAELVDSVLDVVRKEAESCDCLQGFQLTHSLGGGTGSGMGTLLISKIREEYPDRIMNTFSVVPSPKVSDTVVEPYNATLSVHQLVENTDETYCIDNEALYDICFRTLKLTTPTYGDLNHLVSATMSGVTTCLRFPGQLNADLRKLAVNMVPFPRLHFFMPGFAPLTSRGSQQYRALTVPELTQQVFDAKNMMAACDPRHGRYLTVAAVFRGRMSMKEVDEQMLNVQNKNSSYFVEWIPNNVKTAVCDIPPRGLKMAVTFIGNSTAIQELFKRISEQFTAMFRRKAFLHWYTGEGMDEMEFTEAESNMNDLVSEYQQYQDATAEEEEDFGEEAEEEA

Take `O=c1c(O)c(-c2ccc(O)c(O)c2)oc2cc(O)ccc12` [fisetin]: binding was characterised by a dissociation constant (Kd) of 1590 nM.
With `CC(=O)O[C@H]1C(=O)[C@@]2(C)[C@H]([C@H](OC(=O)c3ccccc3)[C@]3(O)C[C@H](OC(=O)[C@H](O)[C@@H](NC(=O)c4ccccc4)c4ccccc4)C(C)=C1C3(C)C)[C@]1(OC(C)=O)CO[C@@H]1C[C@@H]2O` [paclitaxel] the figure was 2260 nM.
